According to patent US20230092890A1, “1, 3, 4-Oxadiazole derivative compounds as histone deacetylase 6 inhibitor, and the pharmaceutical composition comprising the same” (Chong Kun Dang Pharmaceutical Corp., priority 2019, published 2023):

Assays:
[1] = target: T1, HDAC6 human recombinant (Homo sapiens, UniProt Q9UBN7); assay: HDAC enzyme activity inhibition (in vitro), HDAC6 assay; type: biochemical; conditions: samples at 0.1, 1, 10, 100 and 1000 nM; 37° C. 60 minutes; fluorescence Ex 390, Em 460; read-out: HDAC6 IC50
T1 construct: purchased Calbiochem 382180
T1 sequence (Q9UBN7 1-1215): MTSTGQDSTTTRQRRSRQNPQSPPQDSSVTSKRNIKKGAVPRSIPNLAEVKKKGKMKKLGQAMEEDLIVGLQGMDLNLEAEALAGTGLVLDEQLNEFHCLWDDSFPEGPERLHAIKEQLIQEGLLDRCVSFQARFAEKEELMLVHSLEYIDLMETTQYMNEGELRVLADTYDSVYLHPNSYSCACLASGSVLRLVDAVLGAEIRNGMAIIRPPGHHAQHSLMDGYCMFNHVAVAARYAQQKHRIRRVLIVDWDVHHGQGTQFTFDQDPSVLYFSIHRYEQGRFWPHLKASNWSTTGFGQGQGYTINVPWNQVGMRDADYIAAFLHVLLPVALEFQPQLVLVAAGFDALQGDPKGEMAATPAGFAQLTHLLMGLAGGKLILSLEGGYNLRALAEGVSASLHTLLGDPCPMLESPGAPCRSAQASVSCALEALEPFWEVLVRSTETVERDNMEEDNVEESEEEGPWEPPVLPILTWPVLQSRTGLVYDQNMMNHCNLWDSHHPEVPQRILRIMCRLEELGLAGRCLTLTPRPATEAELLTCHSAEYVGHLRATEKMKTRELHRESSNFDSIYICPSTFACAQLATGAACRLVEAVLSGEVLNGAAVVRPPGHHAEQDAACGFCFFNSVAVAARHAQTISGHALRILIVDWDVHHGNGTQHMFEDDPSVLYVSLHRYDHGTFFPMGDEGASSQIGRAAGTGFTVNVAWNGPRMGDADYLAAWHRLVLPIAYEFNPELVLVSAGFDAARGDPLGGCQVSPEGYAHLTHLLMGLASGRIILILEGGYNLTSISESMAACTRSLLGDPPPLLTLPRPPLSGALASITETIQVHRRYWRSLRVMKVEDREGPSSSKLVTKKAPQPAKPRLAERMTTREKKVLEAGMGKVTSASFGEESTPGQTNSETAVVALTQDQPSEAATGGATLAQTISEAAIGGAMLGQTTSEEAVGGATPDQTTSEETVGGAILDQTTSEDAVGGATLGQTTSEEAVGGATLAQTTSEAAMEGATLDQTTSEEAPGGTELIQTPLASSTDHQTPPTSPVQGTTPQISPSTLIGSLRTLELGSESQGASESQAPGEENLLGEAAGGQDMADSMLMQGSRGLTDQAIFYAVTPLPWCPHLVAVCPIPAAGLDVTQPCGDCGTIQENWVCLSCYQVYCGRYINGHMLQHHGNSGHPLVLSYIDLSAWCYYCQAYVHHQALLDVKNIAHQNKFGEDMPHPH
Outline: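 HDAC6 human recombinant enzyme with fluorimetric substrate; […]. Reaction 60 min at 37° C, then developer 30 min at 37° C; fluorescence read at Ex 390/Em 460.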

[2] = target: T2, HDAC1 (Homo sapiens, UniProt Q13547); assay: HDAC enzyme activity inhibition (in vitro), HDAC1 Fluorimetric Drug Discovery Assay Kit; type: biochemical; conditions: samples at 100, 1000 and 10000 nM; 37° C. 60 minutes; fluorescence Ex 390, Em 460; read-out: HDAC1 IC50
T2 construct: purchased Enzolifesciences BML-AK511
T2 sequence (Q13547 whole entry): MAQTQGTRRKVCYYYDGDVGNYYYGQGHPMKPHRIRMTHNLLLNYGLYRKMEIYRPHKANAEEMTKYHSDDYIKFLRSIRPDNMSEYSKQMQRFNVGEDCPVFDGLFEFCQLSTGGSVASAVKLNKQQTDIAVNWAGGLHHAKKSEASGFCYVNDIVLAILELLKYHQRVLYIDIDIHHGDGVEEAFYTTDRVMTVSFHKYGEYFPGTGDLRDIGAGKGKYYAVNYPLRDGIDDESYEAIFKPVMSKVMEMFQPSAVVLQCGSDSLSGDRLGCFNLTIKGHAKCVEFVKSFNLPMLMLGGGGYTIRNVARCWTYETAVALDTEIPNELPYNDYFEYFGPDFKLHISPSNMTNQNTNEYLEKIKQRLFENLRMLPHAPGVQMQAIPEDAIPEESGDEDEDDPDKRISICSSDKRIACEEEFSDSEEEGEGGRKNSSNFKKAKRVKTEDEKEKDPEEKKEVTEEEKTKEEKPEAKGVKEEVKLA
Outline: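 Compounds at 100, 1000, 10000 nM (HDAC1) or 0.1, 1, 10, 100, 1000 nM (HDAC6); 37° C, 60 min; developer, 37° C, 30 min; fluorescence Ex 390/Em 460.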

Compound	IC50 [1]	IC50 [2]
O=c1n(CCN2CC3(COC3)C2)c2ccccc2n1Cc1ccc(-c2nnc(C(F)F)o2)cc1 [Compound 26, 1-(2-(2-oxa-6-azaspiro[3.3]heptane-6-yl)ethyl)-3-(4-(5-(difluoromethyl)-1,3,4-oxadiazole-2-yl)benzyl)-1,3-dihydro-2H-benzo[d]imidazole-2-one]	209 nM	> 10000 nM
CN1CCC(n2c(=O)n(Cc3ccc(-c4nnc(C(F)F)o4)cn3)c3cc(F)c(-c4ccc(F)cc4F)cc32)CC1 [Compound 223, 1-((5-(5-(difluoromethyl)-1,3,4-oxadiazole-2-yl)pyridine-2-yl)methyl)-5-(2,4-difluorophenyl)-6-fluoro-3-(1-methylpiperidine-4-yl)-1,3-dihydro-2H-benzo[d]imidazole-2-one]	16 nM	> 10000 nM
O=c1oc2cc(C3CCN(C4CCC4)CC3)ccc2n1Cc1ccc(-c2nnc(C(F)F)o2)cn1 [Compound 315, 6-(1-cyclobutylpiperidine-4-yl)-3-((5-(5-(difluoromethyl)-1,3,4-oxadiazole-2-yl)pyridine-2-yl)methyl)benzo[d]oxazole-2(3H)-one]	118 nM	> 10000 nM
CN1CCC(n2c(=O)n(Cc3ccc(-c4nnc(C(F)F)o4)cn3)c3cc(F)c(-c4ccoc4)cc32)CC1 [Compound 150, 1-((5-(5-(difluoromethyl)-1,3,4-oxadiazole-2-yl)pyridine-2-yl)methyl)-6-fluoro-5-(furan-3-yl)-3-(1-methylpiperidine-4-yl)-1,3-dihydro-2H-benzo[d]imidazole-2-one]	43 nM	> 10000 nM
O=c1n(Cc2ccc(-c3nnc(C(F)F)o3)cn2)c2cc(F)c(N3CCN(Cc4cn[nH]c4)CC3)cc2n1C1COC1 [Compound 323, 5-(4-((1H-pyrazole-4-yl)methyl)piperazine-1-yl)-1-((5-(5-(difluoromethyl)-1,3,4-oxadiazole-2-yl)pyridine-2-yl)methyl)-6-fluoro-3-(oxetan-3-yl)-1,3-dihydro-2H-benzo[d]imidazole-2-one]	35 nM	> 10000 nM
CC(C)(C)OC(=O)N1CCN(c2cc3oc(=O)n(Cc4ccc(-c5nnc(C(F)F)o5)cn4)c3cc2F)CC1 [Compound 316, tert-butyl 4-(3-((5-(5-(difluoromethyl)-1,3,4-oxadiazole-2-yl)pyridine-2-yl)methyl)-5-fluoro-2-oxo-2,3-dihydrobenzo[d]oxazole-6-yl)piperazine-1-carboxylate]	91 nM	> 10000 nM
CC(F)(F)CN1CCC(n2c(=O)n(Cc3ccc(-c4nnc(C(F)F)o4)cn3)c3cc(Cl)ccc32)CC1 [Compound 234, 5-chloro-3-((5-(5-(difluoromethyl)-1,3,4-oxadiazole-2-yl)pyridine-2-yl)methyl)-1-(1-(2,2-difluoropropyl)piperidine-4-yl)-1,3-dihydro-2H-benzo[d]imidazole-2-one]	54 nM	> 10000 nM
Cn1c(=O)n(Cc2ccc(-c3nnc(C(F)F)o3)cc2F)c2cc(F)c(Br)cc21 [Compound 148, 5-bromo-1-(4-(5-(difluoromethyl)-1,3,4-oxadiazole-2-yl)-2-fluorobenzyl)-6-fluoro-3-methyl-1,3-dihydro-2H-benzo[d]imidazole-2-one]	61 nM	> 10000 nM
O=c1n(Cc2ccc(-c3nnc(C(F)F)o3)cn2)c2cc(F)c(-c3cccnc3)cc2n1[C@@H]1CCN(C2COC2)C1 [Compound 286, (R)-1-((5-(5-(difluoromethyl)-1,3,4-oxadiazole-2-yl)pyridine-2-yl)methyl)-6-fluoro-3-(1-(oxetan-3-yl)pyrrolidine-3-yl)-5-(pyridine-3-yl)-1,3-dihydro-2H-benzo[d]imidazole-2-one]	9 nM	> 10000 nM
Cn1c(=O)n(Cc2ccc(-c3nnc(C(F)F)o3)cn2)c2cc(F)c(-c3cccnc3)cc21 [Compound 165, 1-((5-(5-(difluoromethyl)-1,3,4-oxadiazole-2-yl)pyridine-2-yl)methyl)-6-fluoro-3-methy 1-5-(pyridine-3-yl)-1,3-dihydro-2H-benzo[d]imidazole-2-one]	10 nM	> 10000 nM
Cn1c(=O)n(Cc2ccc(-c3nnc(C(F)F)o3)cn2)c2cc(F)c(N3CCN(C(=O)CO)CC3)cc21 [Compound 266, 1-((5-(5-(difluoromethyl)-1,3,4-oxadiazole-2-yl)pyridine-2-yl)methyl)-6-fluoro-5-(4-(2-hydroxyacetyl)piperazine-1-yl)-3-methyl-1,3-dihydro-2H-benzo[d]imidazole-2-one]	39 nM	> 10000 nM
CN(C)CCn1c(=O)n(Cc2ccc(-c3nnc(C(F)F)o3)cn2)c2ccccc21 [Compound 3, 1-((5-(5-(difluoromethyl)-1,3,4-oxadiazole-2-yl)pyridine-2-yl)methyl)-3-(2-(dimethylamino)ethyl)-1,3-dihydro-2H-benzo[d]imidazole-2-one]	115 nM	> 10000 nM
COCC(C)N1CCC(n2c(=O)n(Cc3ccc(-c4nnc(C(F)F)o4)cn3)c3cc(F)ccc32)CC1 (stereo not drawn) [Compound 56, 3-((5-(5-(difluoromethyl)-1,3,4-oxadiazole-2-yl)pyridine-2-yl)methyl)-5-fluoro-1-(1-(1-methoxypropane-2-yl)piperidine-4-yl)-1,3-dihydro-2H-benzo[d]imidazole-2-one]	34 nM	> 10000 nM
CN1CCN(c2cc3oc(=O)n(Cc4ccc(-c5nnc(C(F)F)o5)cn4)c3cc2F)CC1 [Compound 317, 3-((5-(5-(difluoromethyl)-1,3,4-oxadiazole-2-yl)pyridine-2-yl)methyl)-5-fluoro-6-(4-methylpiperazine-1-yl)benzo[d]oxazole-2(3H)-one]	15 nM	> 10000 nM
O=c1n(Cc2ccc(-c3nnc(C(F)F)o3)cn2)c2cc(F)c(-c3cccc4[nH]ccc34)cc2n1[C@@H]1CCCN(C2COC2)C1 [Compound 295, (R)-1-((5-(5-(difluoromethyl)-1,3,4-oxadiazole-2-yl)pyridine-2-yl)methyl)-6-fluoro-5-(1H-indole-4-yl)-3-(1-(oxetan-3-yl)piperidine-3-yl)-1,3-dihydro-2H-benzo[d]imidazole-2-one]	10 nM	> 10000 nM
O=c1n(Cc2ccc(-c3nnc(C(F)F)o3)cn2)c2ccc(F)cc2n1C1CCN(C2CCC2)CC1 [Compound 45, 3-(1-cyclobutylpiperidine-4-yl)-1-((5-(5-(difluoromethyl)-1,3,4-oxadiazole-2-yl)pyridine-2-yl)methyl)-5-fluoro-1,3-dihydro-2H-benzo[d]imidazole-2-one]	121 nM	> 10000 nM
CN1CCC(n2c(=O)n(Cc3ccc(-c4nnc(C(F)F)o4)cn3)c3cc(F)c(-c4ccc5c(ccn5C(=O)OC(C)(C)C)c4)cc32)CC1 [Compound 251, tert-butyl 5-(1-((5-(5-(difluoromethyl)-1,3,4-oxadiazole-2-yl)pyridine-2-yl)methyl)-6-fluoro-3-(1-methylpiperidine-4-yl)-2-oxo-2,3-dihydro-1H-benzo[d]imidazole-5-yl)-1H-indole-1-carboxylate]	374 nM	> 10000 nM
CN1CCC[C@@H](n2c(=O)n(Cc3ccc(-c4nnc(C(F)F)o4)cn3)c3cc(F)c(-c4cccc5[nH]ccc45)cc32)C1 [Compound 276, (R)-1-((5-(5-(difluoromethyl)-1,3,4-oxadiazole-2-yl)pyridine-2-yl)methyl)-6-fluoro-5-(1H-indole-4-yl)-3-(1-methylpiperidine-3-yl)-1,3-dihydro-2H-benzo[d]imidazole-2-one]	15 nM	> 10000 nM
